Results from PubChem BioAssay (NCI).
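Dose response: 5 concentrations. Exposure: 48 h. Format: 96-well plates. Endpoint: linear interpolation; highest concentration if not reached. GI50: concentration for 50% inhibition of growth. At the TGI there is no net growth.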

Columns and labels:
Test in all cases: DTP human tumour cell line panel, 48 h
SK-MEL-5 melanoma = system: SK-MEL-5 melanoma
OVCAR-4 ovarian = system: OVCAR-4 ovarian
COLO 205 colon = system: COLO 205 colon
HCC-2998 colon = system: HCC-2998 colon
786-0 renal = system: 786-0 renal
CCRF-CEM leukemia = system: CCRF-CEM leukemia
OVCAR-8 ovarian = system: OVCAR-8 ovarian
HOP-92 NSCLC = system: HOP-92 NSCLC
NCI/ADR-RES ovarian = system: NCI/ADR-RES ovarian
BT-549 breast = system: BT-549 breast

SMILES	TGI (SK-MEL-5 melanoma) [µM]	TGI (OVCAR-4 ovarian) [µM]	TGI (COLO 205 colon) [µM]	TGI (HCC-2998 colon) [µM]	TGI (786-0 renal) [µM]	TGI (CCRF-CEM leukemia) [µM]	TGI (OVCAR-8 ovarian) [µM]	TGI (HOP-92 NSCLC) [µM]	GI50 (HOP-92 NSCLC) [µM]	GI50 (NCI/ADR-RES ovarian) [µM]	TGI (NCI/ADR-RES ovarian) [µM]	GI50 (BT-549 breast) [µM]	TGI (BT-549 breast) [µM]	GI50 (SK-MEL-5 melanoma) [µM]	GI50 (OVCAR-4 ovarian) [µM]	GI50 (COLO 205 colon) [µM]	GI50 (786-0 renal) [µM]	GI50 (CCRF-CEM leukemia) [µM]	GI50 (OVCAR-8 ovarian) [µM]	GI50 (HCC-2998 colon) [µM]
CC(=O)O[C@]1(C)OC(=O)[C@@H](C)N1[N+](=O)[O-]	> 100	> 100	> 100	> 100	> 100	> 100	> 100	–	–	–	–	–	–	–	–	–	–	–	–	–
COc1c(NC(C)=O)cc(C)cc1NC(C)=O	> 100	> 100	> 100	> 100	> 100	> 100	> 100	> 100	–	–	–	–	–	–	–	–	–	–	–	–
Cn1c(O)c(C(/C=C/c2ccccc2)=NCCN=C(/C=C/c2ccccc2)c2c(O)n(C)c(=O)n(C)c2=O)c(=O)n(C)c1=O	29.5	> 50	> 50	–	> 50	> 50	> 50	32.5	12	15.3	> 50	10.2	29.5	11.4	13.9	17.3	21.3	12.4	16.6	–
CCOC(=O)/C=C/c1cc2cc(-c3csc4ccccc34)ccc2[nH]1	16.6	19.8	21.3	30.2	26.9	11.4	13.7	29.5	10.7	10	55.3	–	–	4.52	7.1	7.16	11.3	3.04	3.79	14.4
Cc1cc(C2=NNC(=O)Cc3cc4c(cc32)OCCO4)cc(C)c1N	> 100	> 100	11.2	44	> 100	–	> 100	> 100	3.54	0.882	25.8	3.36	> 100	1.22	6.4	1.55	5.27	–	4.08	3.26
C[C@]12CCc3nonc3C1CC[C@@H]1C2CC[C@]2(C)NC(=O)CCC12 (stereo partly specified)	> 100	> 100	> 100	–	> 100	> 100	> 100	> 100	–	–	–	–	–	–	–	–	–	–	–	–
CN=C(NC#N)NCCSCc1nc[nH]c1C	> 100	> 100	> 100	> 100	> 100	> 100	> 100	> 100	–	–	> 100	–	–	–	–	–	–	–	–	–
CC1(C)CCc2cc3c(cc2O1)OCC1c2cc4c(cc2OC31)OCO4 (stereo unspecified)	> 100	> 100	> 100	> 100	> 100	> 100	> 100	> 100	–	–	–	–	–	–	–	–	–	–	–	–
C=CC[P+](c1ccccc1)(c1ccccc1)c1ccccc1	5.27	> 100	14.1	> 100	> 100	> 100	> 100	–	–	> 100	> 100	4.05	94.5	1.6	2.84	2.66	27.6	3.4	3.25	3.19
Cn1nnnc1N/N=C/c1ccccc1	> 10	> 10	> 10	> 10	> 10	> 10	> 10	> 10	–	–	> 10	–	–	–	–	–	–	–	–	–
COc1ccc2c(c1)[n+]([O-])c(-c1ccccc1)c(N)[n+]2[O-]	35	> 100	44.4	> 100	> 100	> 100	> 100	–	–	–	–	–	–	–	–	–	–	–	–	–
O=C(c1cc2ccccc2o1)N(Cc1ccccc1)c1ccccc1	31.2	–	35.4	46.1	46.7	37.6	66.2	44	–	–	–	–	–	–	–	–	–	–	–	–
C[C@@H]1CC[C@@H]2[C@@H]1[C@H](OC(=O)/C=C/c1ccccc1)[C@]1(C3CCCCC3)C[C@@H](NC(=O)CO)[C@@]2(C)O1	29	35.4	33.5	35.1	29.3	45.2	32	–	–	12.9	32.1	13.2	26.7	15.3	16	16.6	14.9	23.2	16.3	18.3
CC(C)(C)CC(C)(C)c1cc2c(O)c(c1)Cc1cc(C(C)(C)CC(C)(C)C)cc(c1O)Cc1cc(C(C)(C)CC(C)(C)C)cc(c1O)Cc1cc(C(C)(C)CC(C)(C)C)cc(c1O)Cc1cc(C(C)(C)CC(C)(C)C)cc(c1O)Cc1cc(C(C)(C)CC(C)(C)C)cc(c1O)C2	> 100	> 100	> 100	> 100	> 100	> 100	> 100	> 100	–	–	–	–	–	–	–	–	–	–	–	–
COc1ccc2nc3cc(Cl)ccc3c(N3CCN(c4ccnc(N5CCOCC5)n4)CC3)c2c1	> 100	–	> 100	42.4	34.3	> 100	> 100	> 100	11.5	50.8	> 100	> 100	> 100	> 100	–	6.66	4.23	2.49	43.5	3.86
COC(=O)C1=C(C(=O)OC)C23CC1C1C(C(=O)OC)=C(C(=O)OC)C12C1C=CC3C2C(=O)OC(=O)C21 (stereo unspecified)	> 100	> 100	64.9	> 100	> 100	> 100	> 100	> 100	–	–	–	–	–	–	–	–	–	–	–	–
CN(C)c1ccc(/C=C2\N=C(c3ccc([N+](=O)[O-])cc3)OC2=O)cc1	> 100	> 100	> 100	72.4	> 100	97.9	> 100	97	–	–	–	–	> 100	–	–	–	–	–	–	–
O=C1OCCC1C(O)C1c2ccccc2-c2ccccc21 (stereo unspecified)	–	> 100	> 100	–	> 100	> 100	> 100	> 100	–	–	–	–	–	–	–	–	–	–	–	–
